Measurements as given in publication PMC7347136 (PLoS ONE, 2020).

What was measured:
Format in all cases: biochemical
panel of 256 kinases = experiment: Carna 256-kinase selectivity panel, overall; details: 1 μM
Description: IC50 values were determined from a 10-point concentration curve using ATP concentrations approximating Km values. […] The percentage inhibition of each test solution was calculated, which allowed the IC50 value to be determined from concentration versus percentage inhibition curves by fitting to a four parameter logistic curve.

KIT[V560G] = biological target: T1, KIT[V560G] (Homo sapiens, UniProt P10721, V560G); experiment: Carna kinase panel screen; details: read-out: % Inhibition ± SD
T1 construct: purchased Carna Biosciences
Outline: (§1)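 Each compound was tested at 10 concentrations with ATP set close to its Km value. Percentage inhibition at each concentration was calculated and the IC50 derived by four-parameter logistic fitting.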

PDGFRa[T674I] = biological target: T2, PDGFRa[T674I] (Homo sapiens, UniProt P16234, T674I); experiment: Carna kinase panel screen; details: read-out: % Inhibition ± SD
T2 construct: purchased Carna Biosciences
Outline: as §1

RSK1 = biological target: T3, RSK1 (Homo sapiens, UniProt Q15418); experiment: Carna kinase panel screen; details: read-out: % Inhibition ± SD
T3 construct: purchased Carna Biosciences
Outline: (§2)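 Read-out is percent inhibition, plotted against compound concentration and fitted to a four-parameter logistic model to give IC50. Curves comprised 10 points, with ATP approximating Km.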

DYRK1A = biological target: T4, DYRK1A (Homo sapiens, UniProt Q13627); experiment: Carna kinase panel screen; details: read-out: % Inhibition ± SD
T4 construct: purchased Carna Biosciences
Outline: as §1

PKCi = biological target: T5, PKCi (Homo sapiens, UniProt P41743); experiment: Carna kinase panel screen; details: read-out: % Inhibition ± SD
T5 construct: purchased Carna Biosciences
Outline: as §2

HER2 = biological target: T6, HER2 (Homo sapiens, UniProt P04626); experiment: Carna kinase panel screen; details: read-out: % Inhibition ± SD
T6 construct: purchased Carna Biosciences
Outline: as §2

PKD3 = biological target: T7, PKD3 (Homo sapiens, UniProt O94806); experiment: Carna kinase panel screen; details: read-out: % Inhibition ± SD
T7 construct: purchased Carna Biosciences
Outline: as §2

PKCe = biological target: T8, PKCe (Homo sapiens, UniProt Q02156); experiment: Carna kinase panel screen; details: read-out: % Inhibition ± SD
T8 construct: purchased Carna Biosciences
Outline: as §2

MAPKAPK3 = biological target: T9, MAPKAPK3 (Homo sapiens, UniProt Q16644); experiment: Carna kinase panel screen; details: read-out: % Inhibition ± SD
T9 construct: purchased Carna Biosciences
Outline: as §2

CaMK2g = biological target: T10, CaMK2g (Homo sapiens, UniProt Q13555); experiment: Carna kinase panel screen; details: read-out: % Inhibition ± SD
T10 construct: purchased Carna Biosciences
Outline: as §1

MST1 = biological target: T11, MST1 (Homo sapiens, UniProt Q13043); experiment: Carna kinase panel screen; details: read-out: % Inhibition ± SD
T11 construct: purchased Carna Biosciences
Outline: as §2

T5 sequence (P41743 whole entry): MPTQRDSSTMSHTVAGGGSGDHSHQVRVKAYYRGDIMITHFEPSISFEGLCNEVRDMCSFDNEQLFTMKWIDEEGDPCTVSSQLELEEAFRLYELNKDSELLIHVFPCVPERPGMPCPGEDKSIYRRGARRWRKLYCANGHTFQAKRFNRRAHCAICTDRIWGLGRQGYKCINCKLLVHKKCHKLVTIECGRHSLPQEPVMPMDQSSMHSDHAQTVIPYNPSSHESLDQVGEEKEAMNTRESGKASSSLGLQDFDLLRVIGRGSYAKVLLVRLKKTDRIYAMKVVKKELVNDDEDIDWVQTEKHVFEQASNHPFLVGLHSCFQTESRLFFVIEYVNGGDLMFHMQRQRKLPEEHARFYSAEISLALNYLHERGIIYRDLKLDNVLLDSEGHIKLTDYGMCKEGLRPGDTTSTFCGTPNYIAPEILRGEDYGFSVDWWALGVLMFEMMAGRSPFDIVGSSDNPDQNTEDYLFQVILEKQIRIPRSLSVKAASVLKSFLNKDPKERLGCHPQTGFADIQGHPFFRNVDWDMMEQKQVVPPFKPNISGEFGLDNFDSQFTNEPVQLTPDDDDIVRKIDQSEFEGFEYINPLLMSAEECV
T3 sequence (Q15418 whole entry): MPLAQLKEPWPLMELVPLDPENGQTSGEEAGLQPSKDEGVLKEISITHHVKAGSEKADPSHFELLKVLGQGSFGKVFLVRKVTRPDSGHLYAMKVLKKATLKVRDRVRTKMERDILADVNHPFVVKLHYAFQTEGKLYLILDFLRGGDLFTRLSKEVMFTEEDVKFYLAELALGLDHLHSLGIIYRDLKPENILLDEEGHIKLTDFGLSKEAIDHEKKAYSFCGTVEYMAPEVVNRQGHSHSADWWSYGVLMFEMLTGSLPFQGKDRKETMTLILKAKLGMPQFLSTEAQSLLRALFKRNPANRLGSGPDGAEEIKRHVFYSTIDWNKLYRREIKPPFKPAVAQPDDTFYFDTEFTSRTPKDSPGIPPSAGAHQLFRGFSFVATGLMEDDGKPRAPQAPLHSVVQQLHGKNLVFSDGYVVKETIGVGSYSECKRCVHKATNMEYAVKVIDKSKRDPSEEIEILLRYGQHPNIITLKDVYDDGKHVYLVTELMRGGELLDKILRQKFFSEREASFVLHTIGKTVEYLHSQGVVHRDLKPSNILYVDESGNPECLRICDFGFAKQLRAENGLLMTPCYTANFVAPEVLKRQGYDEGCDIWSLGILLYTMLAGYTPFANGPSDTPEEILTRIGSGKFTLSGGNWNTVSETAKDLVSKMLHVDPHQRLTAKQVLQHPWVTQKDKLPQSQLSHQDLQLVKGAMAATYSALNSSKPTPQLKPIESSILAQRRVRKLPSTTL
T10 sequence (Q13555 whole entry): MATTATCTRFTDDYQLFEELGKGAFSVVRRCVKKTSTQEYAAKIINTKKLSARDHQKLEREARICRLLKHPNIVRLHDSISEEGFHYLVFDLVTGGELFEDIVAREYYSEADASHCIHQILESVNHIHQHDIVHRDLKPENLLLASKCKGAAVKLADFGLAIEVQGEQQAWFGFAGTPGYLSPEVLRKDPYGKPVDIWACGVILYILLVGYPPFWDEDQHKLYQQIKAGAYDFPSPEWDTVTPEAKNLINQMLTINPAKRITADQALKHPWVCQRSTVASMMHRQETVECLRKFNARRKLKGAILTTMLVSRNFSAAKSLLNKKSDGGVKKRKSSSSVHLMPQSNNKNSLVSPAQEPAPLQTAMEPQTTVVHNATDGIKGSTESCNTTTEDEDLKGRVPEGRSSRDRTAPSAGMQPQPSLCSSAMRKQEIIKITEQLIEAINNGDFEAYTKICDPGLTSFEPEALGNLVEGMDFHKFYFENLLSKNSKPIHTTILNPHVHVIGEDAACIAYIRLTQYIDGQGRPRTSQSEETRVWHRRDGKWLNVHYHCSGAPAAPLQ
T8 sequence (Q02156 whole entry): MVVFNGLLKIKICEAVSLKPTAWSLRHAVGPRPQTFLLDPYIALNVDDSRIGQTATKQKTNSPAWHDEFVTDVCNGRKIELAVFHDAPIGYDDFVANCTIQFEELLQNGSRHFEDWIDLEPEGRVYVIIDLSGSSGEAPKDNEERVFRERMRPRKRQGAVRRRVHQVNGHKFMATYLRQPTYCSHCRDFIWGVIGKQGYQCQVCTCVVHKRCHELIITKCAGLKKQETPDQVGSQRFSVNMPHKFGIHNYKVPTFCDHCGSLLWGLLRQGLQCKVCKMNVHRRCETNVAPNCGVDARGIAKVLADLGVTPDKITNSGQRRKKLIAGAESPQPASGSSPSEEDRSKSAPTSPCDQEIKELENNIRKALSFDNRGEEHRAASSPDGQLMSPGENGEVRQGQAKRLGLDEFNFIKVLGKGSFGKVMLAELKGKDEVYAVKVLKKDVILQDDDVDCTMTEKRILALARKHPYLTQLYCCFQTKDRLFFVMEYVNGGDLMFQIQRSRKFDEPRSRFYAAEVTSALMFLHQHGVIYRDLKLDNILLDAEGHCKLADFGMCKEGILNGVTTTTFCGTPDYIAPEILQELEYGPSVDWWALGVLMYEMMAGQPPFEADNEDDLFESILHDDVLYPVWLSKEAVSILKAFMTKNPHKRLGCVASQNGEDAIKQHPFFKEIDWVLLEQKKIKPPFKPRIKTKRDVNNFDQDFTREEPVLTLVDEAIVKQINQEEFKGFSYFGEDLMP
T6 sequence (P04626 23-1255): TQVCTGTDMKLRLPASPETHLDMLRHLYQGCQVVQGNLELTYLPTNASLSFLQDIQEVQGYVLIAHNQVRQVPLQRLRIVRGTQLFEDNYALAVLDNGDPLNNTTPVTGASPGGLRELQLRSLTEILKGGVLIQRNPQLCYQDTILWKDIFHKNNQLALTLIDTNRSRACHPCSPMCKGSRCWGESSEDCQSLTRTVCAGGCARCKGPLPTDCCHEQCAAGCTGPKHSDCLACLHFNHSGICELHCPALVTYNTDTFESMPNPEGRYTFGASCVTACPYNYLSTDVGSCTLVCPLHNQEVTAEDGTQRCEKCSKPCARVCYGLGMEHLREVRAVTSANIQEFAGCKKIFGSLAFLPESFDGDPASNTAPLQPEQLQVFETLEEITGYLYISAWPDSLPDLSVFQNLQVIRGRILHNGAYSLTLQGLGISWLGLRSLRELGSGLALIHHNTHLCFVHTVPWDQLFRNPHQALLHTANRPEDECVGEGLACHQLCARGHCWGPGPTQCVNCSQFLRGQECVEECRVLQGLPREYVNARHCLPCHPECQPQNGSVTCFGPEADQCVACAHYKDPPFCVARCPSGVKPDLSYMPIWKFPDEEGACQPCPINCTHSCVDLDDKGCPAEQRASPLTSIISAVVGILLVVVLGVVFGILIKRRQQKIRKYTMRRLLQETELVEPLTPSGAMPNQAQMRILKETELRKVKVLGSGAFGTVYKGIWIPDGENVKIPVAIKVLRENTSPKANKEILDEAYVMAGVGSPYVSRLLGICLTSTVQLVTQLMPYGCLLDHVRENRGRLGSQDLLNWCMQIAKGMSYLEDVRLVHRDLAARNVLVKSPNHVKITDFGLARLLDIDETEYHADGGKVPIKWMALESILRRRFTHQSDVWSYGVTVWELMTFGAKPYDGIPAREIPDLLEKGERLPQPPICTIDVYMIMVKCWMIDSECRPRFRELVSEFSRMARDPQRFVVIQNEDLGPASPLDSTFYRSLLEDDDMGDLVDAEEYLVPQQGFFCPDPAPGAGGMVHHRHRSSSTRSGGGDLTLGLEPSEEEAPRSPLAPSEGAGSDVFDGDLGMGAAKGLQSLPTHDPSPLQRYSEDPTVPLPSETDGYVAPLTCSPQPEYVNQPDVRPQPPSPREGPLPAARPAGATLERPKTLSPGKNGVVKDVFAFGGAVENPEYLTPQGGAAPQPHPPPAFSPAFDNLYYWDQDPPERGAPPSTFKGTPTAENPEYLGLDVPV
T9 sequence (Q16644 whole entry): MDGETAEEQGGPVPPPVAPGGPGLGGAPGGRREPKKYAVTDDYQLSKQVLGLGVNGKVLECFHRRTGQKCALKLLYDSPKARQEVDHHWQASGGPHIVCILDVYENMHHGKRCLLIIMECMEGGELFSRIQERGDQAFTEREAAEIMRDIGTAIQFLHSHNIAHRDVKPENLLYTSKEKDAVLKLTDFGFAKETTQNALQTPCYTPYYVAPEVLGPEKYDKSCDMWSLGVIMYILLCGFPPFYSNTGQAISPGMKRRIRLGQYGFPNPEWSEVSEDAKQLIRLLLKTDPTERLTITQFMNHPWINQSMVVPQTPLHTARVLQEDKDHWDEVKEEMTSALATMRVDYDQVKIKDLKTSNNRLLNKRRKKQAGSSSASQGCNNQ
T11 sequence (Q13043 whole entry): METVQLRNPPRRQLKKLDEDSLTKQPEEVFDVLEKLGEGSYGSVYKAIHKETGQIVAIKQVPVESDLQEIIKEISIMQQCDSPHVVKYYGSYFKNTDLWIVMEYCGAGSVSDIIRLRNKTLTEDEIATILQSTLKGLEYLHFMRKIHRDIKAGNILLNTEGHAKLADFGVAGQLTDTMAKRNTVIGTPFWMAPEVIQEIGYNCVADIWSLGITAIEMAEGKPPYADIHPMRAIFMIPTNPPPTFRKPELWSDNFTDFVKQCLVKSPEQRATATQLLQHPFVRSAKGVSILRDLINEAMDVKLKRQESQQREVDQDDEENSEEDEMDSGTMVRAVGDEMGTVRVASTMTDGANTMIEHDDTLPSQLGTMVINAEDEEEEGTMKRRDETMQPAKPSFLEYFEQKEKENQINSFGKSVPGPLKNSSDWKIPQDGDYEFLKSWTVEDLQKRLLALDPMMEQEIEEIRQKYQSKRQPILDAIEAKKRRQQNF

For `CC[C@H](Nc1nc(NCc2cnc(C)cc2C)c2ncn(C(C)C)c2n1)[C@@H](C)O` [Fadraciclib, 2-pentanol, 3-[[6-[[(4,6-dimethyl-3-pyridinyl)methyl]amino]-9-(1-methylethyl)-9Hpurin-2-yl]amino]-, (2R,3S)], the “number of kinases inhibited >50%” value (panel of 256 kinases) was 9, the inhibition at 1 µM (KIT[V560G]) was 2.5 ± 0.1% and the inhibition at 1 µM (PDGFRa[T674I]) was -11.4 ± 0.2%. It also gave an inhibition at 1 µM (RSK1) of 5.1%, an inhibition at 1 µM (DYRK1A) of 5.5 ± 0.7% and an inhibition at 1 µM (PKCi) of -13.6 ± 0.5%. For the same molecule, the inhibition at 1 µM (HER2) was -17.6 ± 1%, the inhibition at 1 µM (PKD3) was -1.4% and the inhibition at 1 µM (PKCe) was 7.6 ± 0.1%. For the same molecule, the inhibition at 1 µM (MAPKAPK3) was -6.1 ± 0.3%, the inhibition at 1 µM (CaMK2g) was 12.5 ± 0.4% and the inhibition at 1 µM (MST1) was 4 ± 0.1%.
